# Laboratory results from the kinase profiling compilation of Christmann-Franck et al. (2016).
# What was measured:
# Test in all cases: split-luciferase competition binding
# [1] = target: AKT1 (human) (UniProt P31749); conditions: compound 10.0 µM
# [2] = target: AKT3 (human) (UniProt Q9Y243); conditions: compound 10.0 µM
# [3] = target: AURKA (human) (UniProt O14965); conditions: compound 10.0 µM
# [4] = target: AURKB (human) (UniProt Q96GD4); conditions: compound 10.0 µM
# [5] = target: AURKC (human) (UniProt Q9UQB9); conditions: compound 10.0 µM
# [6] = target: DMPK (human) (UniProt Q09013); conditions: compound 10.0 µM
# [7] = target: PDPK1 (human) (UniProt O15530); conditions: compound 10.0 µM
# [8] = target: PKN1 (human) (UniProt Q16512); conditions: compound 10.0 µM
# [9] = test system: PRKACA (mouse); conditions: compound 10.0 µM; accession and sequence are those of the human protein
# [10] = target: PRKACB (human) (UniProt P22694); conditions: compound 10.0 µM
# [11] = target: PRKCD (human) (UniProt Q05655); conditions: compound 10.0 µM
# [12] = target: PRKCE (human) (UniProt Q02156); conditions: compound 10.0 µM
# [13] = target: PRKCG (human) (UniProt P05129); conditions: compound 10.0 µM
# [14] = target: PRKCH (human) (UniProt P24723); conditions: compound 10.0 µM
# [15] = target: PRKCI (human) (UniProt P41743); conditions: compound 10.0 µM
# [16] = target: PRKCQ (human) (UniProt Q04759); conditions: compound 10.0 µM
# [17] = target: PRKX (human) (UniProt P51817); conditions: compound 10.0 µM
# [18] = target: RPS6KA1 KD1 (human) (UniProt Q15418); conditions: compound 10.0 µM
# [19] = target: RPS6KA2 KD1 (human) (UniProt Q15349); conditions: compound 10.0 µM
# [20] = target: RPS6KA3 KD1 (human) (UniProt P51812); conditions: compound 10.0 µM
# [21] = target: RPS6KA4 KD1 (human) (UniProt O75676); conditions: compound 10.0 µM
# [22] = target: RPS6KA6 KD1 (human) (UniProt Q9UK32); conditions: compound 10.0 µM
# [23] = target: SGK2 (human) (UniProt Q9HBY8); conditions: compound 10.0 µM
# [24] = target: SGK3 (human) (UniProt Q96BR1); conditions: compound 10.0 µM
# [25] = target: STK32B (human) (UniProt Q9NY57); conditions: compound 10.0 µM
# [26] = target: AKT2 (human) (UniProt P31751); conditions: compound 10.0 µM
# [27] = target: RPS6KA5 KD1 (human) (UniProt O75582); conditions: compound 10.0 µM
# Sequence of RPS6KA5 KD1 (human) (O75582 whole entry, looked up): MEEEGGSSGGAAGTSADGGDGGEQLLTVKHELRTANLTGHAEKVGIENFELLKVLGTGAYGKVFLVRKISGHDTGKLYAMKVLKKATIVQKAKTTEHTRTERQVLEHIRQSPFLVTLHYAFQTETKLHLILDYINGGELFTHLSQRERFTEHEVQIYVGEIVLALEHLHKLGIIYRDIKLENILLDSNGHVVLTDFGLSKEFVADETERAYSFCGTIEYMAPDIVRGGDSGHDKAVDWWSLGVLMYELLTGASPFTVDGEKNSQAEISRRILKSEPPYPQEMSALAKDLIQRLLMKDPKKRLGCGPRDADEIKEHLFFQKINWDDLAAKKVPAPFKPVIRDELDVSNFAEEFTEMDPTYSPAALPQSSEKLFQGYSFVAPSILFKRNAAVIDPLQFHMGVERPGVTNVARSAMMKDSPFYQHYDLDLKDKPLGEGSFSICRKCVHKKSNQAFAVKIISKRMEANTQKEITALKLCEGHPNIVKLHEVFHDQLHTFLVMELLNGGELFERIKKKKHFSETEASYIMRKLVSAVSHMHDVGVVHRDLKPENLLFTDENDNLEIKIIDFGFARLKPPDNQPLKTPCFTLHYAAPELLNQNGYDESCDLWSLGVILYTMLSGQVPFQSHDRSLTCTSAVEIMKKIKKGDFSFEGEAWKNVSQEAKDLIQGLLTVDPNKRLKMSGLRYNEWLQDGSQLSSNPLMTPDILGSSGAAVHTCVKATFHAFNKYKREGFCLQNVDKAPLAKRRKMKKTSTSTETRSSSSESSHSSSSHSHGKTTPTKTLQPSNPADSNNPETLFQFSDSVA
# Sequence of PRKCE (human) (Q02156 whole entry, looked up): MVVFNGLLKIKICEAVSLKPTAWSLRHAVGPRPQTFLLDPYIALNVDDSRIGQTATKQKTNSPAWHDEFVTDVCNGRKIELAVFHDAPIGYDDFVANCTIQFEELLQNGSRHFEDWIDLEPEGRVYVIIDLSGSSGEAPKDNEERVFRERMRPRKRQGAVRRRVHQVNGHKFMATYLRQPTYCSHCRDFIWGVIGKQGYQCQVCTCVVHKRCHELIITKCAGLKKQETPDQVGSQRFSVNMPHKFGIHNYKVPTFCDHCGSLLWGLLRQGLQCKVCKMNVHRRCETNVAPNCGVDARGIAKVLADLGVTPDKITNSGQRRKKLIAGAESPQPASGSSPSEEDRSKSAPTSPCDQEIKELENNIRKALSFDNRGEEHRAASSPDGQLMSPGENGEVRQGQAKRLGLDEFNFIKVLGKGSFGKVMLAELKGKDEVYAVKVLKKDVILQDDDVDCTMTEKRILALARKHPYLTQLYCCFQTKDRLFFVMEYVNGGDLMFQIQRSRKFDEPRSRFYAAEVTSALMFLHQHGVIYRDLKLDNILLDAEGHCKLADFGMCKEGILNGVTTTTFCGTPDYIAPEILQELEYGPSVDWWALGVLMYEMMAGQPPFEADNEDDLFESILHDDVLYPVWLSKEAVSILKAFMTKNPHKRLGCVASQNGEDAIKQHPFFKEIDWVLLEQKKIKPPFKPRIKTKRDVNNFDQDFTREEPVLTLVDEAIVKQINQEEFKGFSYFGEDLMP
# Sequence of AKT3 (human) (Q9Y243 whole entry, looked up): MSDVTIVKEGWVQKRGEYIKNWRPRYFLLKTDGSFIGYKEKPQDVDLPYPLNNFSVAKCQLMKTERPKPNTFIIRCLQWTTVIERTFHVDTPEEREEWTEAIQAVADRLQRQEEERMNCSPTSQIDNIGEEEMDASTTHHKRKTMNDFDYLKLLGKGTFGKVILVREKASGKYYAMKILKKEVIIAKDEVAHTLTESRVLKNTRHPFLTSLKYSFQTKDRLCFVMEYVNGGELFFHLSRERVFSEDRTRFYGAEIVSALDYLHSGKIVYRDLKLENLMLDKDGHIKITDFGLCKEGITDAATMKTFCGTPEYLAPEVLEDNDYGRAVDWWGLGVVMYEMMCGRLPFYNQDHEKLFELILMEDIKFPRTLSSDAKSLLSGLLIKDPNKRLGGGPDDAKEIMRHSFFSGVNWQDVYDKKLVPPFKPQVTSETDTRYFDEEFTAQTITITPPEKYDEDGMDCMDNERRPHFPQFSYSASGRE
# Sequence of AKT2 (human) (P31751 whole entry, looked up): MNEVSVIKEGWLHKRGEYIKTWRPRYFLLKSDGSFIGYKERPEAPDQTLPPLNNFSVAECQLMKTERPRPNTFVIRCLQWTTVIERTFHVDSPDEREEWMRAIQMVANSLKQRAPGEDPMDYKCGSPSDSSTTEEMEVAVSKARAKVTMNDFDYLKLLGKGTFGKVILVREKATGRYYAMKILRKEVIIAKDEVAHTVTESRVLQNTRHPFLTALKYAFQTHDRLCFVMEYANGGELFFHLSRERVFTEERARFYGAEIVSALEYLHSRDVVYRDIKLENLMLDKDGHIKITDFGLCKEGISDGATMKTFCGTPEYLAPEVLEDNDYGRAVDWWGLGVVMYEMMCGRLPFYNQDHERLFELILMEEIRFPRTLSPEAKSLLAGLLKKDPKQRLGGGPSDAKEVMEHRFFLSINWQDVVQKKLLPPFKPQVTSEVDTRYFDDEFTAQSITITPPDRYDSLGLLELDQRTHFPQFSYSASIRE
# Sequence of RPS6KA2 KD1 (human) (Q15349 whole entry, looked up): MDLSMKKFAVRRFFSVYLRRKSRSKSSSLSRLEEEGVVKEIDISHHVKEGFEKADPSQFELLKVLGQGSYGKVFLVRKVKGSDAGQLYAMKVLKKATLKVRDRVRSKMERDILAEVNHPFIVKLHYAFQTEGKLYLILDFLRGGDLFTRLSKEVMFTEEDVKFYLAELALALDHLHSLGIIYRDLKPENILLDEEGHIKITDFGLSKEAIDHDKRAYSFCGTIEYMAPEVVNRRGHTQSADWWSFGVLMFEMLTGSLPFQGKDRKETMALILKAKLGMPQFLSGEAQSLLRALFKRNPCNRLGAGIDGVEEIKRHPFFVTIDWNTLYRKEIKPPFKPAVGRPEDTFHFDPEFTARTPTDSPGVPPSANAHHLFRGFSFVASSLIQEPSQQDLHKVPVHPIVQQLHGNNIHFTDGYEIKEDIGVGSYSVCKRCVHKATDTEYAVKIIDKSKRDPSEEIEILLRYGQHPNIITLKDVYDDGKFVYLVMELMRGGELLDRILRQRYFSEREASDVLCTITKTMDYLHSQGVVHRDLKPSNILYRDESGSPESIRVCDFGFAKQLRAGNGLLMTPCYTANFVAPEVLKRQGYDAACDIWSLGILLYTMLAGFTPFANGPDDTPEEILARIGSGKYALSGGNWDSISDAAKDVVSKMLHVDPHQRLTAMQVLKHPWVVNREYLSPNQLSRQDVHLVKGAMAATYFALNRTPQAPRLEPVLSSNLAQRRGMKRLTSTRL
# Sequence of PDPK1 (human) (O15530 whole entry, looked up): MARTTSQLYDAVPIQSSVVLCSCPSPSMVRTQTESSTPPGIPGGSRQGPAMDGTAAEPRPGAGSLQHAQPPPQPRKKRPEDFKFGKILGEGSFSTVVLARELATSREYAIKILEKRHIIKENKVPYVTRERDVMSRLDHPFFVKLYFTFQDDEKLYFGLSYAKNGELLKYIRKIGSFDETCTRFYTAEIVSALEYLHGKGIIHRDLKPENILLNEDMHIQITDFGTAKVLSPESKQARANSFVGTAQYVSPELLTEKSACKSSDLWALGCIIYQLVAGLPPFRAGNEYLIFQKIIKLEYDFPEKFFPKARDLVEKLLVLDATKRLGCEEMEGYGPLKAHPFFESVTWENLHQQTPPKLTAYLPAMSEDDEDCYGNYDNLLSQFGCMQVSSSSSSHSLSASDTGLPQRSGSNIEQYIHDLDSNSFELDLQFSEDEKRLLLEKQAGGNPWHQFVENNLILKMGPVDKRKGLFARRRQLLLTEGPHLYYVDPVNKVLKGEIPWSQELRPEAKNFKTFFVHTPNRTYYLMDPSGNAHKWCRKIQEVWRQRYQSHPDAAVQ
# Sequence of PRKX (human) (P51817 whole entry, looked up): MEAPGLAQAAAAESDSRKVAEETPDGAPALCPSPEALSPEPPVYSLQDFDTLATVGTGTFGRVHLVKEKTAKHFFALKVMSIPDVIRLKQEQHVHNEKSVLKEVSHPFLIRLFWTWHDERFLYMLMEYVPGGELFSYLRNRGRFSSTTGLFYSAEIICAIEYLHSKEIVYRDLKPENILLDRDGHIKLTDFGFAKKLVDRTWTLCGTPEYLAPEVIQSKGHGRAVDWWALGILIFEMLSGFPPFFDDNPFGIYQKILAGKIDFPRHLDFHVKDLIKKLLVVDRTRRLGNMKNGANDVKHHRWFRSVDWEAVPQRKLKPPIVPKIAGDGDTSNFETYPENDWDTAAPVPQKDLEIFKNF
# Sequence of PRKCI (human) (P41743 whole entry, looked up): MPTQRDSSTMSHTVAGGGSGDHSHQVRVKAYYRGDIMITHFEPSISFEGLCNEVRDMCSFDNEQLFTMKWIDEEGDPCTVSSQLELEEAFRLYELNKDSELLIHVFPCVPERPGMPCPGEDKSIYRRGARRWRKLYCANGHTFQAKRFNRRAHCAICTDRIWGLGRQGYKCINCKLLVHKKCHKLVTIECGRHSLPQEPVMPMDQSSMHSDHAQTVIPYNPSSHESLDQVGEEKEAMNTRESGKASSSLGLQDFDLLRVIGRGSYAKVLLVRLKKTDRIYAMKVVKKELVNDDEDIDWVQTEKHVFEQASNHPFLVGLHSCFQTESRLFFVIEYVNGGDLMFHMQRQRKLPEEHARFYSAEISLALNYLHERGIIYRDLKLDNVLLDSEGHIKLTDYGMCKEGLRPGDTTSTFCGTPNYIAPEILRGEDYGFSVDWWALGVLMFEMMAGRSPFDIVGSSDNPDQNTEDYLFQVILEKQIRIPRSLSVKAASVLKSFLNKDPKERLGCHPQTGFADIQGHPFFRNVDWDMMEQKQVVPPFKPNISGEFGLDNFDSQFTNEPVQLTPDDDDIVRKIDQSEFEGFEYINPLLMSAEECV
Structure (SMILES),inhibition [1] [%],inhibition [2] [%],inhibition [3] [%],inhibition [4] [%],inhibition [5] [%],inhibition [6] [%],inhibition [7] [%],inhibition [8] [%],inhibition [11] [%],inhibition [12] [%],inhibition [15] [%],inhibition [16] [%],inhibition [17] [%],inhibition [18] [%],inhibition [19] [%],inhibition [21] [%],inhibition [22] [%],inhibition [23] [%],inhibition [24] [%],inhibition [25] [%],further results
CCN(CC)CCNC(=O)c1c(C)[nH]c(/C=C2\C(=O)Nc3ccc(F)cc32)c1C,28,26,0,22,30,0,10,0,0,22,22,7,25,86,69,86,69,44,42,0,inhibition [9]: 2%; inhibition [10]: 0%; inhibition [13]: 0%; inhibition [14]: 39%; inhibition [20]: 59%
O=C1NC(=O)c2cc(Nc3ccc(F)cc3)c(Nc3ccc(F)cc3)cc21,15,0,0,3,0,,10,0,0,0,0,12,8,0,3,0,0,0,12,19,inhibition [26]: 0%; inhibition [9]: 13%; inhibition [10]: 8%; inhibition [14]: 1%; inhibition [20]: 0%; inhibition [27]: 0%
CO[C@@H]1[C@H](N(C)C(=O)c2ccccc2)C[C@H]2O[C@]1(C)n1c3ccccc3c3c4c(c5c6ccccc6n2c5c31)C(=O)NC4,55,31,26,44,38,29,10,23,52,57,65,55,71,56,70,70,75,22,43,56,inhibition [9]: 63%; inhibition [10]: 81%; inhibition [13]: 52%; inhibition [14]: 60%; inhibition [20]: 79%; inhibition [27]: 66%

# Continued, in another order:
inhibition [1] [%],inhibition [2] [%],inhibition [3] [%],inhibition [4] [%],inhibition [5] [%],inhibition [6] [%],inhibition [7] [%],inhibition [8] [%],inhibition [11] [%],inhibition [12] [%],inhibition [15] [%],inhibition [16] [%],inhibition [17] [%],inhibition [18] [%],inhibition [19] [%],inhibition [21] [%],inhibition [22] [%],inhibition [23] [%],inhibition [24] [%],inhibition [25] [%],Structure (SMILES),further results
0,0,0,0,6,0,0,0,1,0,38,1,77,2,0,0,0,1,0,0,O=S(=O)(c1cccc2cnccc12)N1CCCNCC1,inhibition [26]: 0%; inhibition [13]: 0%; inhibition [14]: 17%; inhibition [27]: 0%
0,0,19,32,15,18,9,0,4,40,0,38,29,4,0,0,10,69,62,8,O=C(c1ccc(Nc2nccc(-c3cc4ccccc4s3)n2)cc1)N1CCC(N2CCCC2)CC1,inhibition [26]: 0%; inhibition [9]: 12%; inhibition [10]: 12%; inhibition [13]: 13%; inhibition [20]: 2%; inhibition [27]: 0%
